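Values below derive from 48-hour exposures of cells grown in 96-well plates, with endpoints linearly interpolated between the two concentrations bracketing the appropriate inhibition level. Here, GI50 denotes the concentration required for 50% inhibition of growth.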 Calls of active or inactive are those of the source. Cut-off read from the data, not from the text of the source: active = GI50 up to about 1.1 µM and inactive = higher.
Columns and labels:
Assay in all cases: inhibition of tumour cell growth, NCI panel, 48 h
XF498 = tested on: XF498
HOP-18 = tested on: HOP-18
786-0 = tested on: 786-0
RXF 631 = tested on: RXF 631
LXFL 529 = tested on: LXFL 529
MDA-N = tested on: MDA-N
Hs-578T = tested on: Hs-578T
PC-3 = tested on: PC-3
T47D = tested on: T47D

SMILES | GI50 (XF498) | GI50 (HOP-18) | GI50 (786-0) | GI50 (RXF 631) | GI50 (LXFL 529) | GI50 (MDA-N) | GI50 (Hs-578T) | GI50 (PC-3) | GI50 (T47D)
C#CCn1c(=O)c(C#N)c(O)c2cc3ccccc3nc21 | > 100 µM (inactive) | > 100 µM (inactive) |  |  |  |  |  |  | 
COc1c2c(c(O)c3c4c(c(C)cc13)C1OC3(C(OC)OC5CC(C)(O)C(OC6CC(C)(O)C(O)C(C)O6)C(C)O5)OC1C(OC)(O4)C31CO1)C(=O)C(O)CC2OC1CC(C)(O)C(OC(C)=O)C(C)O1 (centres undefined) | < 0.01 µM (active) | < 0.01 µM (active) | < 0.01 µM (active) | < 0.01 µM (active) | < 0.01 µM (active) |  |  |  | 
CSC(=N)NNC(=O)CCC(=O)Nc1ccccc1C(F)(F)F |  | > 100 µM (inactive) | > 100 µM (inactive) |  | > 100 µM (inactive) |  |  |  | 
CC(=O)OCCCCn1cnc2nc(Nc3ccccc3)nc(Cl)c21 |  |  | > 100 µM (inactive) |  |  | 31.2 µM (inactive) | 36.2 µM (inactive) | 42.5 µM (inactive) | 56.9 µM (inactive)
CCN(CC)CC(=N)N(CC)c1ccccc1 | > 100 µM (inactive) | > 100 µM (inactive) | > 100 µM (inactive) |  | > 100 µM (inactive) |  |  |  | 
OCCOCn1nc(-c2ccccc2)nc1-c1cnccn1 |  |  | > 100 µM (inactive) |  |  | > 100 µM (inactive) |  | > 100 µM (inactive) | > 100 µM (inactive)
OC12c3ccccc3C1CCCCCC21OCCCO1 (centres undefined) |  | > 100 µM (inactive) | > 100 µM (inactive) |  | > 100 µM (inactive) |  |  |  | 
CCN(CC)Cc1ccc2cccnc2c1O |  |  |  |  |  | 10.6 µM (inactive) | 25.4 µM (inactive) | 6.05 µM (inactive) | 
O=C1NC(c2cccc3ccccc23)Nc2ccc(O)cc21 (centres undefined) | 24.7 µM (inactive) | 43.3 µM (inactive) |  |  |  |  |  |  | 
O=Cc1ccc(CCl)cc1 | 20 µM (inactive) | 14.4 µM (inactive) |  | 3.16 µM (inactive) | 16.2 µM (inactive) |  |  |  | 
Nc1ccc(C2(c3ccc(N)cc3)C3CC4CC(C3)CC2C4)cc1 |  |  |  |  |  | 18.6 µM (inactive) |  | 14.9 µM (inactive) | 14.5 µM (inactive)
O=C(NC1C2CC3CC(C2)CC1C3)c1cc(/C=C/c2ccccc2)nc(S)n1 (centres undefined) | > 100 µM (inactive) |  |  | > 100 µM (inactive) | > 100 µM (inactive) |  |  |  | 
O=C(NC1C(O)C(O)C(CO)OC1n1cc(F)c(=O)[nH]c1=O)OCc1ccccc1 (centres undefined) |  | > 100 µM (inactive) |  | > 100 µM (inactive) | > 100 µM (inactive) |  |  |  | 
CCCCC(NC(=O)CC)C(=O)O (centres undefined) | > 100 µM (inactive) | > 100 µM (inactive) |  |  |  |  |  |  | 
CCN(CC)CCN(C(=O)c1ccc(F)cc1)c1ccccc1N |  |  |  |  |  | > 10 µM (inactive) | > 10 µM (inactive) | > 10 µM (inactive) | > 10 µM (inactive)
COc1cc(C2c3cc4c(cc3OC(N3CCCCC3)C2C)OCO4)cc(OC)c1OC (centres undefined) |  |  | 3.42 µM (inactive) |  |  | 0.723 µM (active) | 2.09 µM (inactive) | 3.5 µM (inactive) | 4.23 µM (inactive)
c1ccc2c(c1)SC1Sc3ccccc3[S+]21 (centres undefined) |  |  | 25.9 µM (inactive) |  |  | 22.4 µM (inactive) | 64.9 µM (inactive) | 28.3 µM (inactive) | 12.5 µM (inactive)
COc1ccc(OC)c2c3c(ccc12)C(c1ccccc1)OC3=O (centres undefined) |  | 52.1 µM (inactive) | 60.7 µM (inactive) |  | 43.8 µM (inactive) |  |  |  | 
CC1CCC(O)/C=C/C(=O)OC(C)C(O)/C=C/C(=O)O1 (centres undefined) |  |  | > 92.9 µM (inactive) |  |  | > 95.9 µM (inactive) | > 100 µM (inactive) | > 100 µM (inactive) | > 100 µM (inactive)
CCOC(=O)c1c2ccccc2n2c(=O)n(-c3ccccc3)nnc12 |  |  | 62.4 µM (inactive) |  |  | > 42.4 µM (inactive) | > 100 µM (inactive) | > 90.6 µM (inactive) | 9.08 µM (inactive)
CC(C)=CCc1c(OC(=O)c2c(C)cc(O)cc2O)cc(CO)c(CO)c1O |  |  | 31.4 µM (inactive) |  |  | 19.1 µM (inactive) | 20.1 µM (inactive) | 18 µM (inactive) | 6.85 µM (inactive)
COC(=O)C1OC(Oc2cc(O)c3c(=O)cc(-c4ccc(O)cc4)oc3c2)C(O)C(O)C1O (centres undefined) | > 100 µM (inactive) | > 100 µM (inactive) |  |  |  |  |  |  | 
O=C(O)C(C(=O)O)P(=S)(S)c1ccccc1 (centres undefined) | > 100 µM (inactive) |  | > 100 µM (inactive) | > 100 µM (inactive) | > 100 µM (inactive) | > 100 µM (inactive) | > 100 µM (inactive) | > 100 µM (inactive) | > 100 µM (inactive)
NCCCCN(CCCN)Cc1ccccc1 |  |  | > 100 µM (inactive) |  |  |  | > 100 µM (inactive) | > 100 µM (inactive) | > 100 µM (inactive)
Nc1ncnc2c1ncn2C=C=CCO |  |  |  |  |  | > 100 µM (inactive) | > 100 µM (inactive) | > 100 µM (inactive) | > 100 µM (inactive)
COc1ccc(-c2nnc(-c3nsc4ccccc34)o2)cc1 |  | 0.571 µM (active) |  |  | 54.5 µM (inactive) |  |  |  | 
CCCCC1=C(Br)C(=C(Br)Br)OC1=O | 7.62 µM (inactive) | 3.94 µM (inactive) |  |  |  |  |  |  | 
Cn1ccc(C(=O)NCCN(CCNC(=O)c2ccn(C)c(=O)c2O)CCNC(=O)c2ccn(C)c(=O)c2O)c(O)c1=O |  |  |  |  |  | > 100 µM (inactive) | > 100 µM (inactive) | > 100 µM (inactive) | > 100 µM (inactive)
Cc1c2cc[n+](C)cc2c(C)c2c1[nH]c1ccc(O)cc12 [ELLIPTINIUM ACETATE] |  | 14.3 µM (inactive) |  |  |  | 47.8 µM (inactive) | 0.387 µM (active) | 28.4 µM (inactive) | 0.251 µM (active)
